In patent US20090280172A1, “GALENIC FORMULATIONS OF ORGANIC COMPOUNDS” (priority 2006, published 2009):

Assay: Bioavailability of transmucosal dosage forms of aliskiren compared with oral formulations
Format: in vivo
Conditions: transmucosal route vs oral formulation e.g. as employed in WO2005/089729

increase of bioavailability over the bioavailability of an oral formulation: at least three times
Compound: COCCCOc1cc(C[C@@H](C[C@H](N)[C@@H](O)C[C@H](C(=O)NCC(C)(C)C(N)=O)C(C)C)C(C)C)ccc1OC [aliskiren, 2(S),4(S),5(S),7(S)-N-(3-amino-2,2-dimethyl-3-oxopropyl)-2,7-di(1-methylethyl)-4-hydroxy-5-amino-8-[4-methoxy-3-(3-methoxy-propoxy)phenyl]-octanamide]
